Laboratory results as given in US20120329758A1, “Combined Treatment Utilizing VB-201” (priority 2010, published 2012).

Experiments:
[1] = tested on: atherosclerosis (aortic lesion area) in rabbits fed a high-cholesterol diet; assay: Measurement of aortic lesion area in rabbits fed a high-cholesterol diet; type: in vivo, male New Zealand White rabbits; settings: high-cholesterol diet 14 weeks, atorvastatin approx. 2.5 mg/kg daily in diet, VB-201 approx. 4 mg/kg oral gavage 5 days per week, FIG. 1
Method: Aortas were collected upon sacrifice. Lesion area was determined by scanning the intensity of Sudan IV stain adhering to the lesioned tissue, using Image-Pro Plus software (Media Cybernetics). Lesion areas were calculated in three different sections of the aorta (aortic arch, thoracic aorta and abdominal aorta). The total aortic lesion area (sum of lesion areas in all 3 sections) was calculated as a percentage of the sum of all 3 section areas.
Atherosclerosis was induced in male New Zealand White rabbits (hsdIF:NZ, Harlan) by supplying the rabbits with a high-cholesterol diet (0.5% w/w cholesterol) for 14 weeks. The rabbits were assigned to four treatment groups (7 or 8 animals per group): a) atorvastatin treatment; b) VB-201 treatment; c) combined atorvastatin+VB-201 treatment; and d) PBS with 0.5% ethanol (control group). […]
(§1) At the end of 14 weeks, the rabbits were sacrificed, and the effects of the treatments were evaluated by measurement of aortic lesion areas and plasma cholesterol levels, and routine blood chemistry assessment (as described hereinabove). Plasma cholesterol levels were also determined after 5 weeks of the high-cholesterol diet.

[2] = Plasma cholesterol assay in rabbits fed a high-cholesterol diet; type: in vivo, male New Zealand White rabbits; settings: for Average cholesterol level / Average cholesterol level (% of control): plasma, atorvastatin 2.5 mg/kg, VB-201 4 mg/kg; for effect on cholesterol levels (in words): rabbits on high-cholesterol diet, atorvastatin 2.5 mg/kg (alone or with VB-201), VB-201 4 mg/kg per se
Method: Plasma cholesterol levels were determined in the Bert W. Strassburger Lipid Center (Sheba Medical Center, Israel) using a Cobas Mira analyzer (Roche) and cholesterol reagent (Roche/Hitach).
Atherosclerosis was induced in male New Zealand White rabbits (hsdIF:NZ, Harlan) by supplying the rabbits with a high-cholesterol diet (0.5% w/w cholesterol) for 14 weeks. The rabbits were assigned to four treatment groups (7 or 8 animals per group): a) atorvastatin treatment; b) VB-201 treatment; c) combined atorvastatin+VB-201 treatment; and d) PBS with 0.5% ethanol (control group).
Atorvastatin was administered by supplementing the diet with 50 mg/kg atorvastatin, which corresponds to a daily dose of approximately 2.5 mg/kg, based on a daily food consumption of approximately 125 grams per rabbit and an average weight of 2.5 kg.
VB-201 was administered daily (5 days per week) by oral gavage of the stock solution (2.7 mg/ml) at volume of 1.5 ml per kg body weight, corresponding to a dose of approximately 4 mg/kg.
as §1

[3] = Blood chemistry assay (SGPT, alkaline phosphatase) in rabbits fed a high-cholesterol diet; type: in vivo, male New Zealand White rabbits; settings: 14 weeks of high-cholesterol diet, atorvastatin 2.5 mg/kg, VB-201 4 mg/kg
Method: Blood chemistry was assayed by the Pathological Chemistry Institute Laboratory (Sheba Medical Center, Israel) using an AU2700® spectrophotometer (Olympus) and the appropriate Olympus reagents. The parameters evaluated were urea, creatinine, glucose, potassium, sodium, chloride, total calcium, phopshorus, uric acid, bilirubin, SGOT, SGPT, LDH, total CPK, CPK-MB, CK-MB %, total protein, albumin, globulin, alkaline phosphatase and osmolality levels. Atherosclerosis was induced in male New Zealand White rabbits (hsdIF:NZ, Harlan) by supplying the rabbits with a high-cholesterol diet (0.5% w/w cholesterol) for 14 weeks. The rabbits were assigned to four treatment groups (7 or 8 animals per group): a) atorvastatin treatment; b) VB-201 treatment; c) combined atorvastatin+VB-201 treatment; and d) PBS with 0.5% ethanol (control group). […] VB-201 was administered daily (5 days per week) by oral gavage of the stock solution (2.7 mg/ml) at volume of 1.5 ml per kg body weight, corresponding to a dose of approximately 4 mg/kg. At the end of 14 weeks, the rabbits were sacrificed, and the effects of the treatments were evaluated by measurement of aortic lesion areas and plasma cholesterol levels, and routine blood chemistry assessment (as described hereinabove).

[4] = tested on: DSS-induced colitis in mice; assay: Dextran sulfate sodium (DSS)-induced colitis model; type: in vivo; settings: for body weight loss: DSS colitis mice, VB-201 oral daily; for body weight loss / disease activity index (DAI), chronic phase / disease activity index (DAI), acute phase: glatiramer acetate 2 mg per mouse s.c. daily; for disease activity index (DAI), chronic phase: after about day 20; for disease activity index (DAI), chronic phase / disease activity index (DAI), acute phase: VB-201 0.04, 0.4 or 4 mg/kg oral daily, FIG. 3; for disease activity index (DAI), acute phase: until about day 20
Method: Colitis was induced in mice with dextran sulfate sodium (DSS), to serve as a model of inflammatory disorders. A solution of 2% DSS was administered in the drinking water of the mice on days 0-4, 19-23 and 32-36 of the experiment.
VB-201 was administered by oral gavage at daily doses of 0.04, 0.4 or 4 mg/kg, beginning 5 days prior to disease induction (i.e., first day of DSS administration). In an alternative treatment, 2 mg per mouse of glatiramer acetate was administered subcutaneously, daily from day 0. Each treatment group included 20 mice. As a negative control, 15 mice were administered vehicle (PBS with 0.5% ethanol) by gavage beginning 5 days prior to disease induction. […], 8 mice were administered vehicle (PBS with 0.5% ethanol) by gavage beginning 5 days prior to disease induction, without treatment with DSS, and 5 mice received no treatment at all. Mice were sacrificed on day 39, and their colon length and weight was determined.
Mice were scored according to a disease activity index (DAI), based on the average score for weight loss, stool consistency and bleeding, as follows: […]

[5] = tested on: C-reactive protein (CRP); settings: healthy humans; previously shown; cited from earlier work
[6] = 5 weeks of high-cholesterol diet
[7] = 14 weeks of high-cholesterol diet
[8] = day 39, VB-201 at all tested doses (0.04, 0.4, 4 mg/kg), glatiramer acetate 2 mg per mouse, FIG. 4
[9] = glatiramer acetate 2 mg per mouse s.c. daily from day 0, FIG. 2

Compound | reduction of aortic lesion areas relative to the control group [1] | Average cholesterol level [2, 6] | Average cholesterol level (% of control) [2, 6] | Average cholesterol level [2, 7] | Average cholesterol level (% of control) [2, 7] | effect on cholesterol levels (in words) [2] | body weight loss [4] | disease activity index (DAI), chronic phase [4] | DSS-induced shortening of the colon length [4, 8] | disease activity index (DAI), acute phase [4] | other results
CC(C)c1c(C(=O)Nc2ccccc2)c(-c2ccccc2)c(-c2ccc(F)cc2)n1CC[C@@H](O)C[C@@H](O)CC(=O)O [Atorvastatin] | 33% | 580 mg/dL | 56 % of control | 1082 mg/dL | 64 % of control | reduced cholesterol levels considerably |  |  |  |  | Average Alkaline Phosphatase level [3]: 104.63 IU/L; Average Alkaline Phosphatase level (% of control) [3]: 174 % of control; Average SGPT level [3]: 110.63 IU/L; Average SGPT level (% of control) [3]: 235 % of control; effect on SGPT and alkaline phosphatase levels (in words) ([3]; rabbits): increased
CCCCCCCCCCCCCCCCOCC(COP(=O)([O-])OCC[N+](C)(C)C)OCCCCC(=O)O (stereo not shown) [VB-201, 1-hexadecyl-2-(4′-carboxybutyl)-glycerol-3-phosphocholine] | 39% | 1303 mg/dL | 126 % of control | 2195 mg/dL | 131 % of control | did not reduce cholesterol levels | reduced body weight loss over the period of days 17-24 | reduced the DAI | partially reversed | without reducing the DM | survival at day 39 ([4]; VB-201 at all tested doses (0.04, 0.4 or 4 mg/kg daily oral gavage), FIG. 2): at least 80%; effect on colon length, compared between doses ([4]; day 39, 0.04 mg/kg VB-201 versus 0.4 and 4 mg/kg, FIG. 4): more effective than the higher doses; DSS-induced increase in the colon weight/length ratios ([4]; day 39, VB-201 at all tested doses (0.04, 0.4, 4 mg/kg), glatiramer acetate 2 mg per mouse, FIG. 5): partially reversed; C-reactive protein (CRP) levels, a marker for inflammation [5]: effective at reducing
Glatiramer acetate |  |  |  |  |  |  | reduced body weight loss over the period of days 8-22 | did not reduce the DAI | not effective | reduced the DAI | survival by day 39 compared with control mice [4, 9]: below that of control mice; survival until day 23 [4, 9]: 100%
